Measurements reported in patent US20040224958A1, “Pyridopyrimidinone derivatives for treatment of neurodegenerative disease” (priority 2000, published 2004).
Where two headings read alike, the source gives them in different places.

Assays:
[1] = target: cdc2/cyclinB (Homo sapiens, UniProt P06493); assay: Cyclin-Dependent Kinase Assay cdc2/cyclinB
[2] = target: cdk2/cyclinE (Homo sapiens, UniProt P24941); assay: Cyclin-Dependent Kinase Assay cdk2/cyclinE
[3] = target: cdk2/cyclinA (Homo sapiens, UniProt P24941); assay: Cyclin-Dependent Kinase Assay cdk2/cyclinA
[4] = target: cdk4/D (Homo sapiens, UniProt P11802); assay: Cyclin-Dependent Kinase 4 (cdk4) Assay; format: biochemical; details: read-out: cdk4/D IC50
Chain of cdk4/D (P11802 whole entry): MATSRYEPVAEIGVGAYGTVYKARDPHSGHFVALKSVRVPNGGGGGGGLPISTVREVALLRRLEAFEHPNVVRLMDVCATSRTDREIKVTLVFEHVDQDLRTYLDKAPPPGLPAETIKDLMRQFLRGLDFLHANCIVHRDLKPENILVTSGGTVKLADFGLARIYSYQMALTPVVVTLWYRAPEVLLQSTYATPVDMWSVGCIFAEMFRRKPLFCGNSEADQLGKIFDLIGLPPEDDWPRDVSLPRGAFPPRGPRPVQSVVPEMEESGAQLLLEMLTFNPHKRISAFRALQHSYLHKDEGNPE
Chain of cdk4/D (P24385 whole entry, further chain): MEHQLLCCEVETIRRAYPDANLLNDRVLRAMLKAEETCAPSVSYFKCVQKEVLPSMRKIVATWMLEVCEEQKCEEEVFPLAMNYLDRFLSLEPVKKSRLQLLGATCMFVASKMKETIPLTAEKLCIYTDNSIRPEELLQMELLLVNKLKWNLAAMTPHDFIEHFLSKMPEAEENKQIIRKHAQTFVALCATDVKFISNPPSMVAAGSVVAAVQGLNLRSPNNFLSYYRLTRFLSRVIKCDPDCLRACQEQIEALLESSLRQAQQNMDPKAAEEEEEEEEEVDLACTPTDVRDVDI

[5] = target: Cdk5/p25 (Homo sapiens, UniProt Q00535); assay: Cyclin-Dependent Kinase 5 High Throughput Screening (cdk5-HTS) Assay; format: biochemical; details: high throughput screen
Procedure, shortened: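 Cdk5/p25 (1.0 μg/mL) phosphorylates GST-RbCOOH (20 μg/mL) in 50 mM Tris pH 7.4 with 10 mM MgCl2 and 20 μM ATP spiked with [γ33P]ATP, 30 min at room temperature. After EDTA stop, substrate captured on glutathione-coated plates; 33P incorporation counted by scintillation; IC50 determined.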

Chain of cdc2/cyclinB (P06493 whole entry): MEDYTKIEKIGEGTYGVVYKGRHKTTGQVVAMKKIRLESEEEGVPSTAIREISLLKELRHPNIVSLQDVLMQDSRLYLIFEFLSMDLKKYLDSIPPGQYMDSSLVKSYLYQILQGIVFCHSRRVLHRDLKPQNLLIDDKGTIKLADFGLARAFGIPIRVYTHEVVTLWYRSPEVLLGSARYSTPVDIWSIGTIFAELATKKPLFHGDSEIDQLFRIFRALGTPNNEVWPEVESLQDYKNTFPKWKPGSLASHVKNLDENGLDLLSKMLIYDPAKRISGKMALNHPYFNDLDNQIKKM
Chain of cdc2/cyclinB (P14635 whole entry, further chain): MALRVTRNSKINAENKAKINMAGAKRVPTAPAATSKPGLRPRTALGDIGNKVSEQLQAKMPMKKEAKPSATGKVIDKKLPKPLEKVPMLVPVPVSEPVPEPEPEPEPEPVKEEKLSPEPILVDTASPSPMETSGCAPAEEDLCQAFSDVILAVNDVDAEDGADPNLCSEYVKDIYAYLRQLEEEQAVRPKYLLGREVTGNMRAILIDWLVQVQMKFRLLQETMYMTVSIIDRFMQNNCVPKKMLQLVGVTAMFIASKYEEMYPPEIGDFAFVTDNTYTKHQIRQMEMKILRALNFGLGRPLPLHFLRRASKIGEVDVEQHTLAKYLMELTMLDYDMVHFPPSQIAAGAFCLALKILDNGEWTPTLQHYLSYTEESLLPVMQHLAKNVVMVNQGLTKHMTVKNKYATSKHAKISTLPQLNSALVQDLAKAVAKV

| Compound | IC50 [1] | IC50 ([2]; cdk2/E IC50) | IC50 ([3]; cdk2/A IC50) | IC50 [4] | IC50 [5] | IC50 ([1]; read-out: cdk1/B IC50) | IC50 ([2]; read-out: cdk2/E IC50) | IC50 ([3]; read-out: cdk2/A IC50) |
| --- | --- | --- | --- | --- | --- | --- | --- | --- |
| CCC(C)n1c(=O)ccc2cnc(Nc3ccc(C#N)cc3)nc21 (centres unmarked) [Example 474, 4-(8-sec-Butyl-7-oxo-7,8-dihydro-pyrido[2,3-d]pyrimidin-2-ylamino)-benzonitrile] | 240 nM | 140 nM | 110 nM | 210 nM | 41 nM | – | – | – |
| 2-(4-Chloro-3-methyl-phenylamino)-8-isopropyl-8H-pyrido[2,3-d]pyrimidin-7-one [Example 416] | – | – | – | 180 nM | 38 nM | 280 nM | 220 nM | 350 nM |
| CCC(C)n1c(=O)ccc2cnc(Nc3cccc(S(N)(=O)=O)c3)nc21 (centres unmarked) [Example 469, 3-(8-sec-Butyl-7-oxo-7,8-dihydro-pyrido[2,3-d]pyrimidin-2-ylamino)-benzenesulfonamide] | 90 nM | 46 nM | 240 nM | 30 nM | 9.6 nM | – | – | – |
| Cn1c(=O)ccc2cnc(Nc3ccc(NC(=O)OC(C)(C)C)cc3)nc21 [Example 615, [4-(8-Methyl-7-oxo-7,8-dihydro-pyrido[2,3-d]pyrimidin-2-ylamino)-phenyl]-carbamic acid tert-butyl ester] | 1760 nM | 1530 nM | 3600 nM | 3000 nM | 1140 nM | – | – | – |
| CCC(CC)n1c(=O)ccc2cnc(Nc3ccc(O)cc3F)nc21 [Example 495, 8-(1-Ethyl-propyl)-2-(2-fluoro-4-hydroxy-phenylamino)-8H-pyrido[2,3-d]pyrimidin-7-one] | 215 nM | 147 nM | 650 nM | 570 nM | 108 nM | – | – | – |
| CCC(C)n1c(=O)ccc2cnc(Nc3ccc(F)c(C(F)(F)F)c3)nc21 (centres unmarked) [Example 458, 8-sec-Butyl-2-(4-fluoro-3-trifluoromethyl-phenylamino)-8H-pyrido[2,3-d]pyrimidin-7-one] | 150 nM | 100 nM | 280 nM | 1700 nM | 29 nM | – | – | – |
| CCC(CC)n1c(=O)ccc2cnc(Nc3ccc(NC(C)=O)c(C)c3)nc21 [Example 513, N-{4-[8-(1-Ethyl-propyl)-7-oxo-7,8-dihydro-pyrido[2,3-d]pyrimidin-2-ylamino]-2-methyl-phenyl}-acetamide] | 160 nM | 330 nM | 630 nM | 830 nM | 110 nM | – | – | – |
| CC(C)n1c(=O)ccc2cnc(Nc3ccc(C(F)(F)F)cc3)nc21 [Example 443, 8-Isopropyl-2-(4-trifluoromethyl-phenylamino)-8H-pyrido[2,3-d]pyrimidin-7-one] | 520 nM | 170 nM | 200 nM | 320 nM | 71 nM | – | – | – |
| CCC(CC)n1c(=O)ccc2cnc(Nc3ccc(C)c(NC(C)=O)c3)nc21 [Example 522, N-{5-[8-(1-Ethyl-propyl)-7-oxo-7,8-dihydro-pyrido[2,3-d]pyrimidin-2-ylamino]-2-methyl-phenyl}-acetamide] | 1100 nM | 320 nM | 1600 nM | 360 nM | 300 nM | – | – | – |
| CCC(C)n1c(=O)ccc2cnc(Nc3ccc(N(C)C(C)=O)cc3)nc21 (centres unmarked) [Example 471, N-[4-(8-sec-Butyl-7-oxo-7,8-dihydro-pyrido[2,3-d]pyrimidin-2-ylamino)-phenyl]-N-methyl-acetamide] | 340 nM | 220 nM | 530 nM | 120 nM | 49 nM | – | – | – |
| O=c1ccc2cnc(Nc3ccc4[nH]c5ccccc5c4c3)nc2n1CC1CC1 [Example 582, 2-(9H-Carbazol-3-ylamino)-8-cyclopropylmethyl-8H-pyrido[2,3-d]pyrimidin-7-one] | 280 nM | 250 nM | 440 nM | 660 nM | 190 nM | – | – | – |
| Cc1cc(Nc2ncc3ccc(=O)n(C(C)C)c3n2)ccc1F [Example 408, 2-(4-Fluoro-3-methyl-phenylamino)-8-isopropyl-8H1-pyrido[2,3-d]pyrimidin-7-one] | 190 nM | 110 nM | 150 nM | 130 nM | 13 nM | – | – | – |
| CCCCn1c(=O)ccc2cnc(Nc3ccc(OC)cc3)nc21 [Example 385, 8-Butyl-2-(4-methoxy-phenylamino)-8H-pyrido[2,3-d]pyrimidin-7-one] | 155 nM | 150 nM | 320 nM | 1140 nM | 130 nM | – | – | – |
| CCC(CC)n1c(=O)ccc2cnc(Nc3ccc(Cl)c(C(F)(F)F)c3)nc21 [Example 486, 2-(4-Chloro-3-trifluoromethyl-phenylamino)-8-(1-ethyl-propyl)-8H-pyrido[2,3-d]pyrimidin-7-one] | 218 nM | 467 nM | 920 nM | 1030 nM | 82.8 nM | – | – | – |

Second part, led by results:

| IC50 [1] | IC50 ([2]; cdk2/E IC50) | IC50 ([3]; cdk2/A IC50) | IC50 [4] | IC50 [5] | Compound | IC50 ([1]; read-out: cdk1/B IC50) | IC50 ([2]; read-out: cdk2/E IC50) | IC50 ([3]; read-out: cdk2/A IC50) |
| --- | --- | --- | --- | --- | --- | --- | --- | --- |
| 420 nM | 350 nM | 1400 nM | 230 nM | 88 nM | CCCCn1c(=O)ccc2cnc(Nc3ccc(I)c(Cl)c3)nc21 [Example 398, 8-Butyl-2-(3-chloro-4-iodo-phenylamino)-8H-pyrido[2,3-d]pyrimidin-7-one] | – | – | – |
| 350 nM | 147 nM | 365 nM | 810 nM | 81 nM | CCn1c(=O)ccc2cnc(Nc3ccc4[nH]nnc4c3)nc21 [Example 287, 2-(1H-Benzotriazol-5-ylamino)-8-ethyl-8H-pyrido[2,3-d]pyrimidin-7-one] | – | – | – |
| 94.5 nM | 50 nM | 117 nM | 505 nM | 52 nM | O=c1ccc2cnc(Nc3ccc4[nH]nnc4c3)nc2n1CC1CC1 [Example 564, 2-(1H-Benzotriazol-5-ylamino)-8-cyclopropylmethyl-8H-pyrido[2,3-d]pyrimidin-7-one] | – | – | – |
| 360 nM | 120 nM | 340 nM | 120 nM | 150 nM | CCCCn1c(=O)ccc2cnc(Nc3ccc(OC)c(F)c3)nc21 [Example 394, 8-Butyl-2-(3-fluoro-4-methoxy-phenylamino)-8H-pyrido[2,3-d]pyrimidin-7-one] | – | – | – |
| 82 nM | 86.5 nM | 250 nM | 71.5 nM | 53 nM | CCCn1c(=O)ccc2cnc(Nc3ccc4[nH]ccc4c3)nc21 [Example 323, 2-(1H-Indol-5-ylamino)-8-propyl-8H-pyrido[2,3-d]pyrimidin-7-one] | – | – | – |
| 129 nM | 71.9 nM | 287 nM | 526 nM | 85.3 nM | CCCn1c(=O)ccc2cnc(Nc3ccc(F)c(Cl)c3)nc21 [Example 369, 2-(3-Chloro-4-fluoro-phenylamino)-8-propyl-8H-pyrido[2,3-d]pyrimidin-7-one] | – | – | – |
| 700 nM | 560 nM | 1300 nM | 1200 nM | 310 nM | CCCn1c(=O)ccc2cnc(Nc3ccc(F)c([N+](=O)[O-])c3)nc21 [Example 351, 2-(4-Fluoro-3-nitro-phenylamino)-8-propyl-8H-pyrido[2,3-d]pyrimidin-7-one] | – | – | – |
| 440 nM | 443 nM | 790 nM | 2050 nM | 445 nM | CCn1c(=O)ccc2cnc(Nc3cc(Cl)c(O)c(Cl)c3)nc21 [Example 291, 2-(3,5-Dichloro-4-hydroxy-phenylamino)-8-ethyl-8H-pyrido[2,3-d]pyrimidin-7-one] | – | – | – |
